Test results from US20020115613A1, “Treatment of prostate cancer” (priority 2001, published 2002).
* marks the point of attachment. Cbz = O=C(OCc1ccccc1)*; CH2F = FC*

Tests used:
LNCaP cells = experiment: Western blotting of death receptors, caspases, Bid, cytochrome c, Akt; format: cell-based; details: LNCaP treated with TRAIL and/or Mifepristone; inhibitor pre-treatment one hr; FIG. 7
Protocol: (§1) LNCaP were obtained from American Type Culture Collection (Rockville, Md.) and LNCaP C4-2 cells were purchased from Urocor Inc., Oklahoma City, Okla. Cells were grown in RPMI 1640 medium supplemented with 10% (LNCaP) or 5% (LNCaP C4-2) fetal bovine serum (Hyclone, Logan, Utah) and grown in the presence of 5% CO2 at 37° C. Cells were treated with 10 μM Mifepristone (Sigma, St. Louis, Mo.) for three days or with increasing concentrations (from 200 ng/ml to 600 ng/ml) of TRAIL (Biomol Research Laboratories, Inc., Plymouth Meetings, Pa.) for varying time intervals 2, 4, 6, 8, 16, 20 and 24 hours (hr). Thus, for treatment with Mifepristone, cells were treated with Mifepristone for three days and then some cells treated (without washing) with TRAIL for indicated periods. Upon completion of the experiment, cells were harvested, and total proteins, cytosol or mitochondrial fractions were isolated as described below. At least three experiments were conducted with a minimum of four plates per treatment per experiment.
(§2) For experiments using inhibitors, the cells were pre-treated with increasing concentrations of the inhibitors (10 μM to 100 μM) for one hr and then with TRAIL. Caspase-8-specific (Z-IETD-FMK) and caspase-9-specific ([…]) inhibitors were purchased from Enzyme Systems Products, Livermore, Calif. The inhibitors were dissolved in DMSO; to limit cellular toxicity, care was taken not to exceed 0.2% DMSO in the culture medium. Appropriate controls included vehicle treated cells with or without the inhibitors.
(§3) Cells were harvested by trypsinization, washed in 1×PBS and cell pellets resuspended in lysis buffer (100 mM Tris-HCl pH 8.0, 0.1% Triton X 100 and protease inhibitor cocktail from Roche Diagnostic Corporation, Indianapolis, Ind.). Cells were incubated over ice for 30 min and centrifuged at 10,000 g at 4° C. for 10 min. The supernatant was collected and the protein concentration estimated using Bio-Rad protein reagent (Bio-Rad Laboratories, Hercules, Calif.).
(§4) Proteins (50 μg, unless stated otherwise) were separated on NuPAGE 10% Bis-Tris gels (Novex pre-cast mini gels, InVitrogen, Carlsbad, Calif.) at 100 volts for 1 hour in the presence of 1×MES-SDS running buffer (InVitrogen, Carlsbad, Calif.). Separated proteins were transferred to (PVDF) membranes (Bio-Rad Laboratories, Hercules, Calif.) at 42 volts for 2.5 hr using a Novex XCell II blotting apparatus in MES transfer buffer in the presence of NuPAGE antioxidant. Transfer of the proteins to the polyvinylidene difluoride (PVDF) membrane was confirmed by staining with Ponceau S (Sigma, St. Louis, Mo.). The blots were blocked in 5% non-fat dry milk in TBS, washed twice for 10 min each with TBS containing 0.1% Tween-20 and incubated for 2 hr at RT with primary antibody diluted in TBS containing 0.5% milk.
(§5) The following antibodies were used in the immunoblots: DR4, DR5 and cytochrome c (Imgenex, San Diego, Calif.), BID (BioSource International, Camarillo, Calif.), caspases-8, -9, and Akt (Cell Signaling Technology, Beverely, Mass.), caspase-3 (BD Pharmingen, San Diego, Calif.) Iκβ and XIAP (Cell Signaling Technology, Beverly, Mass.), cFLIP (StressGen Biotechnology Corp, Victoria, Canada), actin (Sigma Chemical Co., St. Louis, Mo.) and Cox II (Molecular Probes, Eugene, Oreg.). Immunoreactive bands were visualized using ECL detection system (Amersham, Pharmacia Biotech, Arlington Heights, Ill.) and signals were developed after exposure to X-ray film (X-Omat films, Eastman Kodak Company, Rochester, N.Y.).
(§6) For separation of mitochondrial and cytosolic fractions, cells were trypsinized, centrifuged at 600 g for 10 min at 4° C., washed twice in ice-cold PBS and re-suspended in buffer A (20 mM HEPES-KOH, pH 7.2, 10 mM KCl, 1.5 mM MgC12, 1 mM sodium-EDTA, 1 mM sodium-EGTA, 250 mM sucrose and protease inhibitor cocktail). Cells were homogenized on ice with a glass Dounce homogenizer (30 strokes) and were centrifuged at 750 g for 5 min at 4° C. […]

LNCaP C4-2 cells = experiment: as above; format: cell-based; details: LNCaP C4-2 treated with TRAIL and/or Mifepristone; inhibitor pre-treatment one hr; FIG. 7
Protocol: as §1, §2, §3, §4, §5, §6

prostate cancer cells = details: cited from earlier work
PC3AR cells = experiment: Induction of apoptosis / cell survival (FIG. 1E, 6A); format: cell-based; details: 5 μM hydroxyflutamide for 5 days, then 400 ng/ml TRAIL, FIG. 1E
Protocol: PC3AR cells are a clonal cell line derived by stable transfection of PC3 with a full-length human AR cDNA (Dai, J. L., et al., Steroids, 61, 531-539, 1996). PC3Neo cells were stably transfected with neomycin vector alone. Cells were grown in RPMI 1640 with 5% FBS (Hyclone, Logan, Utah), 100 units/ml penicillin, 100 μg/ml streptomycin, 0.25 μg/ml fungizone and G418 (350 μg/ml) to select for neomycin-resistant cells. In experiments using antiandrogens, cells were maintained in 5% DCC stripped serum for at least 48 hr before treatment with hydroxyflutamide (Sigma Chemical Co., St. Louis, Mo.). The medium and all the drugs were replaced every two days. Cells were treated with 200 ng/ml, 400 ng/ml or 600 ng/ml of TRAIL (Biomol Research Laboratories, Inc, Plymouth Meeting, Pa.) for 2, 4, 6, 8, 16 and 20 hr. Cells were treated with 5 μM hydroxyflutamide for 5 days before the commencement of treatment with 400 ng/ml TRAIL.
Two methods were used to measure induction of apoptosis by drug treatment: the MTT assay and the Apoptosense assay. The MTT assay measures mitochondrial enzyme activity and is indicative of the number of surviving cells. The Apoptosense assay is an ELISA, which utilizes M30 antibody to recognize the C-terminal domain (amino acids 387-396) of cytokeratin 18 that is exposed in apoptotic cells after cleavage by caspases.
Cells were seeded in 96-well plates (6000 cells/well) and treatment was started 24 hr after seeding the cells. After completion of the treatment, cells were incubated at 37° C. with the MTT reagent for 3 hr and processed according to manufacturers instructions (Promega Corporation, Madison, Wis.). Color development was measured at 490 nm on a Spectra MAX 340 microplate reader (Molecular Devices, Menlo Park, Calif.).

Compound	caspase-3 activation in presence of caspase inhibitor (LNCaP cells)	caspase-7 activation in presence of caspase inhibitor (LNCaP cells)	caspase-8 activation in presence of caspase inhibitor (LNCaP cells)	tBid in presence of caspase inhibitor (LNCaP cells)	caspase-3 activation in presence of caspase inhibitor (LNCaP C4-2 cells)	caspase-7 activation in presence of caspase inhibitor (LNCaP C4-2 cells)	caspase-8 activation in presence of caspase inhibitor (LNCaP C4-2 cells)	tBid in presence of caspase inhibitor (LNCaP C4-2 cells)	ability to induce apoptosis in prostate cancer cells (Sridhar et al., 2001) (prostate cancer cells)	effect of anti-androgen pre-treatment on response to TRAIL (PC3AR cells)
Cbz-LEHD-CH2F	reduced caspase-3 activity	blocked activation of caspase-7	did not affect caspase-8 activity	significantly reduced the levels of tBid	reduced caspase-3 activity	blocked activation of caspase-7	did not affect caspase-8 activity	significantly reduced the levels of tBid		
CC/C(=C(\c1ccccc1)c1ccc(OCCN(C)C)cc1)c1ccccc1 [Tamoxifen]									marginal ability to induce apoptosis	
CC(C)(O)C(=O)Nc1ccc([N+](=O)[O-])c(C(F)(F)F)c1 [hydroxyflutamide, reference compound]										did not alter their response to TRAIL
Cbz-IETD-CH2F			blocked activation of caspase-8	tBid was not present			blocked activation of caspase-8	tBid was not present		
